Experimental data taken from patent US9199940B2, “Crystalline forms and processes for the preparation of phenyl-pyrazoles useful as modulators of the 5-HT2A serotonin receptor” (Arena Pharmaceuticals, Inc., priority 2006, dated 2015).

Assay: dynamic vapor sorption (DVS) scan of crystalline forms
Assay type: physicochemical
Conditions: up to 95% relative humidity
Excerpt: FIG. 4 depicts a dynamic vapor sorption (DVS) scan for crystalline Form I of Compound 7 of the invention (VTI dynamic vapor sorption analyzer).
FIG. 8 depicts a dynamic vapor sorption (DVS) scan for crystalline Form I Compound 9 of the invention (VTI dynamic vapor sorption analyzer).

## COc1cccc(C(=O)Nc2ccc(OCCN3CCOCC3)c(-c3ccnn3C)c2)c1 [Compound 7 Form I, 4-(2-(4-(3-methoxybenzamido)-2-(1-methyl-1H-pyrazol-5-yl)phenoxy)ethyl)morpholin-4-ium chloride]
  DVS hygroscopicity: FIG. 4: Non-hygroscopic;
